Experimental data from the kinase profiling compilation of Christmann-Franck et al. (2016).

What was measured:
Assay in all cases: split-luciferase competition binding
DMPK (human) = DMPK (human) (UniProt Q09013); settings: compound 10.0 µM
PRKACB (human) = PRKACB (human) (UniProt P22694); settings: compound 10.0 µM
PRKCD (human) = PRKCD (human) (UniProt Q05655); settings: compound 10.0 µM
RPS6KA1 KD1 (human) = RPS6KA1 KD1 (human) (UniProt Q15418); settings: compound 10.0 µM
PRKCE (human) = PRKCE (human) (UniProt Q02156); settings: compound 10.0 µM
Sequence of PRKCE (human) (Q02156 whole entry, looked up): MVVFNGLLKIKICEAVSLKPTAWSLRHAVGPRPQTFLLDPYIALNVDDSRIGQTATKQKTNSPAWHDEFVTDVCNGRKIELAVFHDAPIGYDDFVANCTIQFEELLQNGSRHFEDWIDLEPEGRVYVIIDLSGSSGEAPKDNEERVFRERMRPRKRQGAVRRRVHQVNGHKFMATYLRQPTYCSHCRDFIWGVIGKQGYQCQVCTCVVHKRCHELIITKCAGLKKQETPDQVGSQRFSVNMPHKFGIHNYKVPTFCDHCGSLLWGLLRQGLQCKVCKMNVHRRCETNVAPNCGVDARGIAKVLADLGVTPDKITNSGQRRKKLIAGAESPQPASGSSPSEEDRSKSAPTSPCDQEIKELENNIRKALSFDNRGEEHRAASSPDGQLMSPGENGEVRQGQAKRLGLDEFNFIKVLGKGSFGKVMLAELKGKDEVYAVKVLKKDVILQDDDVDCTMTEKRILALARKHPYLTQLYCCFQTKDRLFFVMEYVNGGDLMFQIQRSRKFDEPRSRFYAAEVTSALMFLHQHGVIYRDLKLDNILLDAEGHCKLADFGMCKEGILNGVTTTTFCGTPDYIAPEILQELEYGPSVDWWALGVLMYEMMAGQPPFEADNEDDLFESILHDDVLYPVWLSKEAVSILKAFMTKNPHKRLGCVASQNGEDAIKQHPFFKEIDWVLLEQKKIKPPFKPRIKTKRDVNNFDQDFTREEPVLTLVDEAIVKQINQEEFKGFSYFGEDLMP

STK32B (human) = STK32B (human) (UniProt Q9NY57); settings: compound 10.0 µM
Sequence of STK32B (human) (Q9NY57 whole entry, looked up): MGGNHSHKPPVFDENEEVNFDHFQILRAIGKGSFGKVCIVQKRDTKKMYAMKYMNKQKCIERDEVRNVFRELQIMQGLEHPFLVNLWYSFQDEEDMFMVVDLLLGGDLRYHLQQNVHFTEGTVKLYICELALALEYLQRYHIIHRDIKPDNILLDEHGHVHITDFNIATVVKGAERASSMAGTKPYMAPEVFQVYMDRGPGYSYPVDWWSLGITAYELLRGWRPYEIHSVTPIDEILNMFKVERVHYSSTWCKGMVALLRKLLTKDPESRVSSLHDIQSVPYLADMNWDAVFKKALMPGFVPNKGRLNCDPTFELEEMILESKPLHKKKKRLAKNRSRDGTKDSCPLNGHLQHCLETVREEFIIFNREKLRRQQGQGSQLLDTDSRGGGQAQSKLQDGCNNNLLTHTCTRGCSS

PDPK1 (human) = PDPK1 (human) (UniProt O15530); settings: compound 10.0 µM
Sequence of PDPK1 (human) (O15530 whole entry, looked up): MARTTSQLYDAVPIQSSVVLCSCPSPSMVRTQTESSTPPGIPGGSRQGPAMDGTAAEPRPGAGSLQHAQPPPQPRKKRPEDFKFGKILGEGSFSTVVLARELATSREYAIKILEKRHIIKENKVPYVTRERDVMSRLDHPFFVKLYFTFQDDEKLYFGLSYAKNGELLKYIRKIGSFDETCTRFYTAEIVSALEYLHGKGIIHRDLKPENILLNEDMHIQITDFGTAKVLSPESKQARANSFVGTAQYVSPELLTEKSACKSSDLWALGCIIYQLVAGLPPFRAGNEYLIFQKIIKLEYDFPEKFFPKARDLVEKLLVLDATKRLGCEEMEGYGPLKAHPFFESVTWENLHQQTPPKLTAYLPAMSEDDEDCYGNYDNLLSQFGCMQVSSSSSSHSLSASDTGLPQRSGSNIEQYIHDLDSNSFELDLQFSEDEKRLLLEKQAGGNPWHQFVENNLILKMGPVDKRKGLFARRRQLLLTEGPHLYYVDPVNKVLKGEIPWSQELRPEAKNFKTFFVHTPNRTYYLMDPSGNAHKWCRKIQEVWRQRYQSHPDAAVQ

RPS6KA4 KD1 (human) = RPS6KA4 KD1 (human) (UniProt O75676); settings: compound 10.0 µM
AURKC (human) = AURKC (human) (UniProt Q9UQB9); settings: compound 10.0 µM
AKT3 (human) = AKT3 (human) (UniProt Q9Y243); settings: compound 10.0 µM
Sequence of AKT3 (human) (Q9Y243 whole entry, looked up): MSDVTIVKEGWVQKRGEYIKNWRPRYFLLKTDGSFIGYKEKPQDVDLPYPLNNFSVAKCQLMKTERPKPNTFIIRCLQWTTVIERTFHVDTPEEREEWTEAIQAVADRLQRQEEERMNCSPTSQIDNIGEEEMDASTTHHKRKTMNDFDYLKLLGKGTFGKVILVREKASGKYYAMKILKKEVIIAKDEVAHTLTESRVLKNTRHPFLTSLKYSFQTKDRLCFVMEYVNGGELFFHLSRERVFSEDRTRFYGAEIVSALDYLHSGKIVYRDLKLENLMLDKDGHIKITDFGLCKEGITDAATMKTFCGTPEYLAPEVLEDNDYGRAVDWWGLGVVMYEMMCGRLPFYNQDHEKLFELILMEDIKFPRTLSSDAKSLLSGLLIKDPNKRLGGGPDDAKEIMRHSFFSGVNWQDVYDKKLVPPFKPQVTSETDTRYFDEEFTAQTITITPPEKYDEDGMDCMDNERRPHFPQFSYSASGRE

PRKCG (human) = PRKCG (human) (UniProt P05129); settings: compound 10.0 µM
PRKACA (mouse) = settings: compound 10.0 µM; accession and sequence are those of the human protein
PRKCQ (human) = PRKCQ (human) (UniProt Q04759); settings: compound 10.0 µM
AKT1 (human) = AKT1 (human) (UniProt P31749); settings: compound 10.0 µM
Sequence of AKT1 (human) (P31749 whole entry, looked up): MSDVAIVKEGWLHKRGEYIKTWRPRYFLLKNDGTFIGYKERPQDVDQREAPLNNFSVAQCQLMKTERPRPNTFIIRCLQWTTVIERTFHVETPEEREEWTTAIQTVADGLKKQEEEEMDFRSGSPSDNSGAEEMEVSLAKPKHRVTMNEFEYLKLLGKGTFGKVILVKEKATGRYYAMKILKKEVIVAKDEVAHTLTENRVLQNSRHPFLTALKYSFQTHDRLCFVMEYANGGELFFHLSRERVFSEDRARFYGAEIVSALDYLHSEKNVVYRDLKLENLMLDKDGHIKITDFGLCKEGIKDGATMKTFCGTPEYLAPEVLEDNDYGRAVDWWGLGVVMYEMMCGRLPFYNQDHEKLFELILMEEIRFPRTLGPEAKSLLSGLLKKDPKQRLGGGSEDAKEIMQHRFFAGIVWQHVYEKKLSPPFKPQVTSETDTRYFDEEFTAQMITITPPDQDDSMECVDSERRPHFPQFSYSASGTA

AURKB (human) = AURKB (human) (UniProt Q96GD4); settings: compound 10.0 µM
SGK2 (human) = SGK2 (human) (UniProt Q9HBY8); settings: compound 10.0 µM
RPS6KA2 KD1 (human) = RPS6KA2 KD1 (human) (UniProt Q15349); settings: compound 10.0 µM
PRKX (human) = PRKX (human) (UniProt P51817); settings: compound 10.0 µM
Sequence of PRKX (human) (P51817 whole entry, looked up): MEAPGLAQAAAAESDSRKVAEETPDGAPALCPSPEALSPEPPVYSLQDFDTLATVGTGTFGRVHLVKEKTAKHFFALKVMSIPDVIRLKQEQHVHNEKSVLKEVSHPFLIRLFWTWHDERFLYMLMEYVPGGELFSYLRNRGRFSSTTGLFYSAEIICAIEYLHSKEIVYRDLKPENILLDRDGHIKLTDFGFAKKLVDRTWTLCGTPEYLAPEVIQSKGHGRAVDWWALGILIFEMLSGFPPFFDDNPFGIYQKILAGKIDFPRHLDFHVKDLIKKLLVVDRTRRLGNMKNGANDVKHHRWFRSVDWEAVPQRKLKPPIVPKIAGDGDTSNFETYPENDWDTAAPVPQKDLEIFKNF

PRKCH (human) = PRKCH (human) (UniProt P24723); settings: compound 10.0 µM
RPS6KA3 KD1 (human) = RPS6KA3 KD1 (human) (UniProt P51812); settings: compound 10.0 µM
Sequence of RPS6KA3 KD1 (human) (P51812 whole entry, looked up): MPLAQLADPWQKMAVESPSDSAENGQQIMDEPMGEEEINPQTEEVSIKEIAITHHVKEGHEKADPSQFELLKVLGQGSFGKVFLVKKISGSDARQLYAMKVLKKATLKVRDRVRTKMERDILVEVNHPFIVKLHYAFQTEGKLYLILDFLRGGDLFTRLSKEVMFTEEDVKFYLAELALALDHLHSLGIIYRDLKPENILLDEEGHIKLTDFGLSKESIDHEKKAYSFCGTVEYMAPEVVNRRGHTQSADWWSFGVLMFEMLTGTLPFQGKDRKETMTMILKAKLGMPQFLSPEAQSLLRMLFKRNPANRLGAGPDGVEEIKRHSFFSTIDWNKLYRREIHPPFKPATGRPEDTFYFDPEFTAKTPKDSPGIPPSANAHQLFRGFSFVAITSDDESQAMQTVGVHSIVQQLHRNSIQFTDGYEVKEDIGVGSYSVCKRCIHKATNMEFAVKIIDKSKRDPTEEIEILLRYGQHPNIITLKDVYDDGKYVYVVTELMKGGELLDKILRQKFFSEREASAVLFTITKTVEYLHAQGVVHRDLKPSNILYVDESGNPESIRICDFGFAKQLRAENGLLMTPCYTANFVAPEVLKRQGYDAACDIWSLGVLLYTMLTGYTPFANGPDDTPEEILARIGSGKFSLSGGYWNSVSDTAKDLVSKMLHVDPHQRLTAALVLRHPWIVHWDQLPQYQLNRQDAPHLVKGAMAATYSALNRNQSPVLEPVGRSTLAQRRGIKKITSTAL

PRKCI (human) = PRKCI (human) (UniProt P41743); settings: compound 10.0 µM
PKN1 (human) = PKN1 (human) (UniProt Q16512); settings: compound 10.0 µM
SGK3 (human) = SGK3 (human) (UniProt Q96BR1); settings: compound 10.0 µM
RPS6KA5 KD1 (human) = RPS6KA5 KD1 (human) (UniProt O75582); settings: compound 10.0 µM
RPS6KA6 KD1 (human) = RPS6KA6 KD1 (human) (UniProt Q9UK32); settings: compound 10.0 µM
AKT2 (human) = AKT2 (human) (UniProt P31751); settings: compound 10.0 µM
Sequence of AKT2 (human) (P31751 whole entry, looked up): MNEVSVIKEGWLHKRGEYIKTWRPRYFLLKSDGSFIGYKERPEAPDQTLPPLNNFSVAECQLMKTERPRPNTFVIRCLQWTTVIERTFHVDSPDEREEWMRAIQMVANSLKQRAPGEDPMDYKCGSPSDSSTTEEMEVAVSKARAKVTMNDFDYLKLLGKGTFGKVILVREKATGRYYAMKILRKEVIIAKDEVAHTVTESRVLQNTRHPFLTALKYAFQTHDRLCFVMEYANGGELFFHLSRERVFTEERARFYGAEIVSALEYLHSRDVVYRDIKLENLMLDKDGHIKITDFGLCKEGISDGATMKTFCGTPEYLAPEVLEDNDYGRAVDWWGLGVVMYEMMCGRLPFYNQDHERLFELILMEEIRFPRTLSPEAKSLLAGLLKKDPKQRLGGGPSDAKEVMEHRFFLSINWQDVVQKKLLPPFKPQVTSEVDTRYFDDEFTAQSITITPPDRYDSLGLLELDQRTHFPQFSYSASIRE

AURKA (human) = AURKA (human) (UniProt O14965); settings: compound 10.0 µM

Sequence of PRKCD (human) (Q05655 whole entry, looked up): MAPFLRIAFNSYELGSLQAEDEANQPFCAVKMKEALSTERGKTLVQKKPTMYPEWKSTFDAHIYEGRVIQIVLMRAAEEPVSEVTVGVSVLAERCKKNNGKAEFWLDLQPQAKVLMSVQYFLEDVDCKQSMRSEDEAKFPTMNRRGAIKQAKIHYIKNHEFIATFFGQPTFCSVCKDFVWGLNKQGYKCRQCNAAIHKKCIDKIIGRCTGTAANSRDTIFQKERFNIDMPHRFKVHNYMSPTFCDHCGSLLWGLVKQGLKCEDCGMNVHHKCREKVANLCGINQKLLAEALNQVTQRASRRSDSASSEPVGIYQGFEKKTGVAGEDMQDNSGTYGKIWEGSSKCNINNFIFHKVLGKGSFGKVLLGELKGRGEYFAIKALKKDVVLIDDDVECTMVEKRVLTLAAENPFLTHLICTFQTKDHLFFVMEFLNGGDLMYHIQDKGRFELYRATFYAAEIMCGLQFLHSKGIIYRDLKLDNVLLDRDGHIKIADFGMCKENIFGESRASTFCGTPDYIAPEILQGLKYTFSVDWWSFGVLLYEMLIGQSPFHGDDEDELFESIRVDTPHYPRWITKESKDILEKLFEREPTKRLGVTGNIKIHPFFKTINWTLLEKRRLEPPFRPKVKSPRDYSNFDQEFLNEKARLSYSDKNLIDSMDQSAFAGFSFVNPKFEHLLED

Row | SMILES | inhibition (DMPK (human)) | inhibition (PRKACB (human)) | inhibition (PRKCD (human)) | inhibition (RPS6KA1 KD1 (human)) | inhibition (PRKCE (human)) | inhibition (STK32B (human)) | inhibition (PDPK1 (human)) | inhibition (RPS6KA4 KD1 (human)) | inhibition (AURKC (human)) | inhibition (AKT3 (human)) | inhibition (PRKCG (human)) | inhibition (PRKACA (mouse)) | inhibition (PRKCQ (human)) | inhibition (AKT1 (human)) | inhibition (AURKB (human)) | inhibition (SGK2 (human)) | inhibition (RPS6KA2 KD1 (human)) | inhibition (PRKX (human)) | inhibition (PRKCH (human)) | inhibition (RPS6KA3 KD1 (human)) | further results
1 | c1ccc(-c2n[nH]cc2-c2ccnc3ccccc23)nc1 | 3% | 0% | 0% | 0% | 5% | 8% | 0% | 0% | 6% | 0% | 4% | 1% | 1% | 0% | 25% | 0% | 0% | 5% | 0% | 0% | inhibition (PRKCI (human)): 0%; inhibition (PKN1 (human)): 7%; inhibition (SGK3 (human)): 0%; inhibition (RPS6KA5 KD1 (human)): 0%; inhibition (RPS6KA6 KD1 (human)): 0%; inhibition (AKT2 (human)): 0%; inhibition (AURKA (human)): 0%
2 | COc1cc2nccc(Oc3ccc(NC(=O)Nc4ccc(F)cc4F)c(F)c3)c2cc1OC | 13% | 5% | 0% | 0% | 0% | 0% | 0% | 23% | 80% | 0% | 3% | 16% | 20% | 6% | 71% | 17% | 32% | 12% | 0% | 12% | inhibition (PRKCI (human)): 0%; inhibition (PKN1 (human)): 10%; inhibition (SGK3 (human)): 12%; inhibition (RPS6KA5 KD1 (human)): 43%; inhibition (RPS6KA6 KD1 (human)): 21%; inhibition (AKT2 (human)): 0%; inhibition (AURKA (human)): 41%
3 | CS(=O)c1ccc(-c2nc(-c3ccc(F)cc3)c(-c3ccncc3)[nH]2)cc1 (stereo not given) | 0% | 0% | 0% | 0% | 0% | 36% | 3% | 0% | 0% | 0% | 0% | 0% | 0% | 11% | 0% | 0% | 3% | 0% | 5% | 2% | inhibition (PRKCI (human)): 0%; inhibition (PKN1 (human)): 0%; inhibition (SGK3 (human)): 0%; inhibition (RPS6KA5 KD1 (human)): 0%; inhibition (RPS6KA6 KD1 (human)): 0%; inhibition (AKT2 (human)): 0%; inhibition (AURKA (human)): 6%
4 | O=C1c2ccccc2-c2n[nH]c3cccc1c23 | 0% | 0% | 0% | 0% | 0% | 0% | 0% | 0% | 0% | 0% | 0% | 0% | 0% | 0% | 6% | 2% | 0% | 0% | 0% | 0% | inhibition (PRKCI (human)): 0%; inhibition (PKN1 (human)): 4%; inhibition (SGK3 (human)): 0%; inhibition (RPS6KA5 KD1 (human)): 0%; inhibition (RPS6KA6 KD1 (human)): 0%; inhibition (AKT2 (human)): 0%; inhibition (AURKA (human)): 0%
5 | Cc1[nH]c(/C=C2\C(=O)Nc3ccc(S(=O)(=O)Cc4c(Cl)cccc4Cl)cc32)c(C)c1C(=O)N1CCC[C@@H]1CN1CCCC1 | 9% | 13% | 0% | 32% | 7% | 23% | 7% | 12% | 39% | 0% | 12% | 1% | 0% | 8% | 33% | 2% | 14% | 7% | 12% | 13% | inhibition (PRKCI (human)): 7%; inhibition (PKN1 (human)): 0%; inhibition (SGK3 (human)): 0%; inhibition (RPS6KA5 KD1 (human)): 22%; inhibition (RPS6KA6 KD1 (human)): 25%; inhibition (AKT2 (human)): 0%; inhibition (AURKA (human)): 19%
